Measured values taken from patent publication US10973788B2, “Treatment of cancer with specific RXR agonists” (Io Therapeutics, Inc., priority 2005, dated 2021).

Columns and labels:
[1] = molecular target: RAR α (Homo sapiens, UniProt P10276)
Method: (§1) RXR EC90:RAR EC10 ratio is calculated by taking the inverse of the RXR EC90 α, β and γ values (nM) divided by the corresponding inverse of the RAR EC10 α, β and γ values (nM). For example, the RXR EC90:RAR EC10 ratio is determined by dividing RAR EC10 by RXR EC90 for α, β and γ. Thus, a value is obtained for all three receptors, referred to herein as (RXR EC90:RAR EC10 ratio)α, (RXR EC90:RAR EC10 ratio)β and (RXR EC90:RAR EC10 ratio)γ for α β and γ, respectively. For example, (RXR EC90:RAR EC10 ratio), is determined by dividing RAR EC10α by RXRα EC90. The mean RXR EC90:RAR EC10 ratio is the average of all three values. An example is provided below in Tables 1A and 1B.

[2] = molecular target: RAR β (Homo sapiens, UniProt P10826)
Method: as §1

[3] = molecular target: RAR γ (Homo sapiens, UniProt P13631)
Method: as §1

[4] = system: RXR; test: RXR pan-agonist potency; type: cell-based
[5] = system: cell lines derived from a variety of tumor types; test: Tumor growth inhibition in cell lines; type: cell-based
[6] = system: breast cancer; test: Animal models of breast cancer; type: in vivo
[7] = system: human H292 NSCLC tumors; test: Animal models of lung cancer (H292 NSCLC xenograft); type: in vivo, nude mice
Method: (§2) Nude mice were randomized into 4 groups of 10 animals each based on body weight and xenografted subcutaneously in the right flank with H292 cells (2×10^6 cells). Drug treatment was started immediately after xenografting and continued for 35 days (5 animals of each group) or 55 days (remaining 5 animals). […] Tumor sizes were measured periodically for 35 days (FIG. 1A). Animals #1-5 of each group were sacrificed after 35 days of treatment and gastrocnemus muscles were determined (FIG. 10). The body weights and overall appearance of animals #6 through #10 from each group were followed for an extended period (FIG. 1B and FIG. 1D). To appropriately show the overall health of these animals, pictures were taken from their tumor-free left flank on day 55 (FIG. 1D).

[8] = system: cancer-induced cachexia; test: Models of cancer-induced cachexia; type: in vivo
Method: as §2

[9] = Ames genotoxicity test
[10] = system: mouse lymphoma TK; test: Mouse lymphoma TK genotoxicity assay; type: cell-based
[11] = Rat micronucleus genotoxicity assay; type: in vivo
[12] = Repeated oral dose study for 4 weeks followed by recovery, dogs; type: in vivo; conditions: repeated oral dose 4 weeks
[13] = Repeated oral dose study for 4 weeks followed by recovery, rats; type: in vivo; conditions: repeated oral dose 4 weeks
[14] = molecular target: RXR β (Homo sapiens, UniProt P28702); test: cell-based; conditions: read-out: RXR EC90 β
Method: as §1

[15] = system: NSCLC; conditions: pivotal Phase III; cited from earlier work

RAR α, sequence (P10276 whole entry): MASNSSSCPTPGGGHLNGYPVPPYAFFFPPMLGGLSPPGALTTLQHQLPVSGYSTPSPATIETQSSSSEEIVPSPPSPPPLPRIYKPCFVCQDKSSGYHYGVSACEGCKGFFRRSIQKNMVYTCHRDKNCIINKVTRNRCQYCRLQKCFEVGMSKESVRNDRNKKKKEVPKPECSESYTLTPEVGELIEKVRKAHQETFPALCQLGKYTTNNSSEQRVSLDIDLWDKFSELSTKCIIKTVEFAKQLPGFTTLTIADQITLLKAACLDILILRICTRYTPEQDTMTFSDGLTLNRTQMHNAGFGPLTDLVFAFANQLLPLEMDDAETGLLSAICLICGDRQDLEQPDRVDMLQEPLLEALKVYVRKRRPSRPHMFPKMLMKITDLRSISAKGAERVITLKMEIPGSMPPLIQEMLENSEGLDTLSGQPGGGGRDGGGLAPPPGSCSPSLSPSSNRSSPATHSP
RXR β, sequence (P28702 whole entry): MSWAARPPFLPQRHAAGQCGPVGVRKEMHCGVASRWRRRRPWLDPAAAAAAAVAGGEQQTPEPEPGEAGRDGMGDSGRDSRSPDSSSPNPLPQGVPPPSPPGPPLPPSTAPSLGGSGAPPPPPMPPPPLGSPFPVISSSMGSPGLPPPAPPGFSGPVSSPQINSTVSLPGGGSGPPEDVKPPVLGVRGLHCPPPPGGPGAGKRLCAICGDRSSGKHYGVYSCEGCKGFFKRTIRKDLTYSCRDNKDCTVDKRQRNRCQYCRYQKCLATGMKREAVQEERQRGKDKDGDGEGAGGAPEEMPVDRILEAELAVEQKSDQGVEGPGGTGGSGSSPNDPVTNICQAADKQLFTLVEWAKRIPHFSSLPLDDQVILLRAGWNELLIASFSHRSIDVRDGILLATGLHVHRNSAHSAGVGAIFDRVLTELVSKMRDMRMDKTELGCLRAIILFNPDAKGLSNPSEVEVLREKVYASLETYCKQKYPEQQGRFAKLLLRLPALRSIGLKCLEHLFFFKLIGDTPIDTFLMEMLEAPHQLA

| Compound | RAR EC10 α [1] [nM] | RAR EC10 β [2] [nM] | RAR EC10 γ [3] [nM] | EC50 [4] [nM] | tumor growth inhibition [5] | tumor growth inhibition [6] | tumor growth inhibition [7] | body weight [8] | food consumption [8] | muscle and adipose tissue [8] | survival [8] | genotoxicity [9] | genotoxicity [10] | genotoxicity [11] | severe toxic dose [12] | severe toxic dose [13] [mg/m^2/d] | EC90 [14] [nM] | survival [15] |
| --- | --- | --- | --- | --- | --- | --- | --- | --- | --- | --- | --- | --- | --- | --- | --- | --- | --- | --- |
| CC(/C=C/[C@@H]1C[C@]1(C)c1ccc2c(c1)C(C)(C)CCC2(C)C)=C\C(=O)O [VTP 194204, 3,7-dimethyl-6(S),7(S)-methano,7-[1,1,4,4-tetramethyl-1,2,3,4-tetrahydron-aphth-7-yl]2(E), 4(E) heptadienoic acid] | 300 | […] | […] | […] | tumor growth inhibitory effects | tumor growth inhibitory effects | tumor growth inhibitory effects | maintained body weight | improved food consumption | prevented loss of muscle and adipose tissue | prolonged survival | No genotoxicity | No genotoxicity | No genotoxicity | […] | […] | – | – |
| C=C(c1ccc(C(=O)O)cc1)c1cc2c(cc1C)C(C)(C)CCC2(C)C [TARGRETIN ®, bexarotene] | – | – | – | – | – | – | – | – | – | – | – | – | – | – | – | – | 100 | did not show increased survival |
